The values below come from ChEMBL document CHEMBL2413073, “Efficient construction of novel D-ring modified steroidal dienamides and their cytotoxic activities” (Eur J Med Chem, 2013).

≈ marks a conversion by molar mass, not a printed value.

One assay has as its system PC-3. Put plainly: Cytotoxicity against human PC3 cells after 72 hrs by MTT assay. The class given is functional, cell-based. Particulars: PC-3, 72 h.
For assay [1], the system named is MGC-803. Put plainly: Induction of apoptosis in human MGC803 cells assessed as early apoptotic cells at 2 uM after 24 hrs by AnnexinV/FITC-propidium iodide staining-based flow cytometry (reference value: 8.9%). It is filed as functional. (A flow cytometer gives signals particle by particle.)
In assay [2] the test system is MGC-803. Put plainly: Cell cycle arrest in human MGC803 cells assessed as accumulation at G0/G1 phase at 8 uM after 24 hrs by propidium iodide staining-based flow cytometry (reference value: 43.45%). It is filed as functional.
Assay [3] relates to MGC-803. Put plainly: Induction of apoptosis in human MGC803 cells assessed as viable cells at 8 uM after 24 hrs by AnnexinV/FITC-propidium iodide staining-based flow cytometry (reference value: 89.6%). Conditions: MGC-803, 24 h, read-out: Activity. The class given is functional.
Assay [4] deals with MGC-803. Put plainly: Cell cycle arrest in human MGC803 cells assessed as accumulation at G2/M phase at 4 uM after 24 hrs by propidium iodide staining-based flow cytometry (reference value: 20.41%). The class given is functional.
Assay [5] in a line: Cytotoxicity against human EC109 cells after 72 hrs by MTT assay. It is filed as functional, cell-based. Particulars: ECa-109, 72 h. For orientation: Tetrazolium assays rely on reduction of a dye to a coloured formazan, in cell work by metabolically active cells.
The test system of assay [6] is MGC-803. Put plainly: Induction of apoptosis in human MGC803 cells assessed as viable cells at 4 uM after 24 hrs by AnnexinV/FITC-propidium iodide staining-based flow cytometry (reference value: 89.6%). Particulars: MGC-803, 24 h, read-out: Activity. The class given is functional.
In assay [7] the test system is MGC-803. Put plainly: Induction of apoptosis in human MGC803 cells assessed as necrotic cells at 4 uM after 24 hrs by AnnexinV/FITC-propidium iodide staining-based flow cytometry (reference value: 0.2%). It is filed as functional.
Assay [8] concerns MGC-803. Put plainly: Cell cycle arrest in human MGC803 cells assessed as accumulation at G2/M phase at 2 uM after 24 hrs by propidium iodide staining-based flow cytometry (reference value: 20.41%). It is filed as functional.
The test system of assay [9] is MGC-803. Put plainly: Induction of apoptosis in human MGC803 cells assessed as early apoptotic cells at 4 uM after 24 hrs by AnnexinV/FITC-propidium iodide staining-based flow cytometry (reference value: 8.9%). It is filed as functional.
Assay [10] deals with MGC-803. Put plainly: Induction of apoptosis in human MGC803 cells assessed as late apoptotic cells at 4 uM after 24 hrs by AnnexinV/FITC-propidium iodide staining-based flow cytometry (reference value: 1.2%). The class given is functional.
Assay [11] has as its system MGC-803. Put plainly: Cell cycle arrest in human MGC803 cells assessed as accumulation at S phase at 8 uM after 24 hrs by propidium iodide staining-based flow cytometry (reference value: 26.67%). The class given is functional.
Assay [12] relates to MGC-803. Put plainly: Cell cycle arrest in human MGC803 cells assessed as accumulation at G2/M phase after 24 hrs by propidium iodide staining-based flow cytometry. The class given is functional.
The subject of a further assay is MCF7. Put plainly: cells. Particulars: Homo sapiens, MCF7, 72 h.
Assay [13] concerns MGC-803. Put plainly: Induction of apoptosis in human MGC803 cells assessed as late apoptotic cells at 2 uM after 24 hrs by AnnexinV/FITC-propidium iodide staining-based flow cytometry (reference value: 1.2%). It is filed as functional.
In assay [14] the test system is MGC-803. Put plainly: Induction of apoptosis in human MGC803 cells assessed as early apoptotic cells at 8 uM after 24 hrs by AnnexinV/FITC-propidium iodide staining-based flow cytometry (reference value: 8.9%). The class given is functional.
For assay [15], the system named is MGC-803. Put plainly: Cell cycle arrest in human MGC803 cells assessed as accumulation at G0/G1 phase at 2 uM after 24 hrs by propidium iodide staining-based flow cytometry (reference value: 43.45%). The class given is functional.
Assay [16] concerns MGC-803. Put plainly: Cell cycle arrest in human MGC803 cells assessed as accumulation at S phase at 4 uM after 24 hrs by propidium iodide staining-based flow cytometry (reference value: 26.67%). The class given is functional.
The next assay deals with SMMC-7721. Put plainly: Cytotoxicity against human SMMC7721 cells after 72 hrs by MTT assay. The class given is functional, cell-based. Conditions: SMMC-7721, 72 h.
Assay [17] relates to MGC-803. Put plainly: Induction of apoptosis in human MGC803 cells assessed as viable cells at 2 uM after 24 hrs by AnnexinV/FITC-propidium iodide staining-based flow cytometry (reference value: 89.6%). It is filed as functional. Particulars: MGC-803, 24 h, read-out: Activity.
The subject of assay [18] is MGC-803. Put plainly: Induction of apoptosis in human MGC803 cells assessed as necrotic cells at 8 uM after 24 hrs by AnnexinV/FITC-propidium iodide staining-based flow cytometry (reference value: 0.2%). The class given is functional.
Assay [19] relates to MGC-803. Put plainly: Cell cycle arrest in human MGC803 cells assessed as accumulation at G0/G1 phase at 4 uM after 24 hrs by propidium iodide staining-based flow cytometry (reference value: 43.45%). It is filed as functional.
The test system of assay [20] is MGC-803. Put plainly: Induction of apoptosis in human MGC803 cells assessed as necrotic cells at 2 uM after 24 hrs by AnnexinV/FITC-propidium iodide staining-based flow cytometry (reference value: 0.2%). The class given is functional.
For assay [21], the system named is MGC-803. Put plainly: Cell cycle arrest in human MGC803 cells assessed as accumulation at G2/M phase at 8 uM after 24 hrs by propidium iodide staining-based flow cytometry (reference value: 20.41%). The class given is functional.
In assay [22] the test system is MGC-803. Put plainly: Cell cycle arrest in human MGC803 cells assessed as accumulation at S phase at 2 uM after 24 hrs by propidium iodide staining-based flow cytometry (reference value: 26.67%). The class given is functional.
Assay [23] has as its system MGC-803. Put plainly: Cytotoxicity against human MGC803 cells after 72 hrs by MTT assay. Conditions: MGC-803, 72 h. It is filed as functional, cell-based.
In assay [24] the test system is MGC-803. Put plainly: Induction of apoptosis in human MGC803 cells assessed as late apoptotic cells at 8 uM after 24 hrs by AnnexinV/FITC-propidium iodide staining-based flow cytometry (reference value: 1.2%). The class given is functional.
The next assay deals with HT-29. Put plainly: Cytotoxicity against human HT-29 cells. It is filed as functional, cell-based.
Assay [25] can be described thus: Cytotoxicity against human MEL28 cells. The class given is functional, cell-based. Conditions: SK-MEL-28.
For a further assay, the system named is P388. Put plainly: Cytotoxicity against mouse P388 cells. The class given is functional, cell-based.
The test system of another assay is A549. Put plainly: Cytotoxicity against human A549 cells. It is filed as functional, cell-based.

Description for MCF7: Cytotoxicity against human MCF7 cells after 72 hrs by MTT assay

In the case of `CC(=O)O[C@H]1CC[C@@]2(C)C(=CC[C@@H]3[C@@H]2CC[C@]2(C)C(=C(/C#N)C(N)=O)/C(=C/c4ccc(Cl)cc4)C[C@@H]32)C1`, the IC50 (commonly the concentration that gives 50% inhibition) turned out to be 11.5 µM in the assay on PC-3; 5.56 µM in [5]; 3.85 µM in the assay on MCF7; 3.9 µM in the assay on SMMC-7721; 1.54 µM in the assay on MGC-803 [23]. The Activity in the assay on MGC-803 [1] was 18.7%; with MGC-803 [2] it was 21.6%; in the assay with MGC-803 [4] it was 49.43%; in the assay on MGC-803 [7], 2%; in the assay with MGC-803 [8] it was 33.68%; in the assay with MGC-803 [9] it was 35.9%. For the same compound, the Activity in the assay with MGC-803 [10] is 9.4%; in the assay on MGC-803 [11], 19.09%; in the assay on MGC-803 [12] it was “Dose-dependent effect”; in the assay with MGC-803 [13], 4.4%; in the assay on MGC-803 [14], 80.9%; in the assay on MGC-803 [15], 48.61%. Besides, the Activity was determined as 19.94% in the assay on MGC-803 [16]; 0.1% in the assay on MGC-803 [18]; 28.84% with MGC-803 [19]; 0.5% in the assay on MGC-803 [20]; 56.91% with MGC-803 [21]; 15.68% in the assay with MGC-803 [22]. Besides, the Activity with MGC-803 [24] amounted to 17.1%. The viability at 8 µM with MGC-803 [3] was 1.9%. In the assay on MGC-803 [6], the viability at 4 µM stood at 52.7%. In addition, in the assay with MGC-803 [17], the viability at 2 µM came to 76.3%.
Turning to `C=C1C[C@@H]2C/C=C/C(=O)C/C(C)=C\C=C\C(=O)O[C@H]([C@H](O)NC(=O)/C=C\C=C\C)C/C(C)=C/[C@H](C1)O2` [ZAMPANOLIDE], the IC50 (with HT-29; in assay [25]; with P388; in the assay on A549) was 1 ng/mL (≈ 2.02 nM) in each case.
